According to patent EP4585587A1, “PROPIONIC ACID DERIVATIVE AND USE THEREOF IN MEDICINE” (priority 2022, dated 2024):
Structures can show the parent of a compound that is named as a salt.

Experiments:
[1] = Pharmacokinetic test in mice; format: in vivo; details: male BALB/c mice, plasma
Description: Experimental animals: male BALB/c mice, 20-25 g, 6 mice/compound. purchased from Chengdu Ddossy Experimental Animals Co., Ltd.
Experimental design: on the day of the test, 6 BALB/c mice were randomly grouped according to their body weights. The animals were fasted with water available for 12 to 14 h one day before the administration and were fed 4 h after the administration. Table 2. Administration information
Before and after the administration, 0.06 mL of blood was taken from the orbit of the animals under isoflurane anesthesia and placed in an EDTAK2 centrifuge tube. The blood was centrifuged at 5000 rpm and 4°C for 10 min to collect plasma. The blood collection time points for the intravenous group and intragastric group were both 0 min, 5 min, 15 min, 30 min, 1 h, 2 h, 4 h, 6 h, 8 h, and 24 h. Before analysis and detection, all samples were stored at -80°C, and the samples were quantitatively analyzed by LC-MS/MS.

[2] = Test of stability in liver microsomes; format: in vitro ADME; details: Rat liver microsomes, 1 µM, 37°C, NADPH
Description: (§1) In this experiment, liver microsomes of three species, including monkey, rat and mouse, were used as in vitro models to evaluate the metabolic stability of the test compound.
(§2) At 37°C, 1 µM of the test compound was co-incubated with microsomal protein and coenzyme NADPH. At given time points of the reaction (5 min, 10 min, 20 min, 30 min, and 60 min), the reaction was terminated by adding ice-cold acetonitrile containing an internal standard. The LC-MS/MS method was used to measure the concentration of the test compound in the sample. T1/2 was calculated using the natural logarithm (In) of the residual rate of the drug in the incubation system and the incubation time. In addition, the intrinsic clearance in liver microsomes CLint(mic) and the intrinsic clearance in liver CLint(Liver) were further calculated.

[3] = Test of stability in liver microsomes; format: in vitro ADME, mouse; details: Mice liver microsomes, 1 µM, 37°C, NADPH
Description: as §1, §2

[4] = Test of stability in liver microsomes; format: in vitro ADME; details: Monkey liver microsomes, 1 µM, 37°C, NADPH
Description: as §1, §2

integrin α4β1 = experiment: Integrin α4β1-mediated cell adhesion assay (Jurkat cells on VCAM); format: cell-based; details: for α4β1/α4β7: selectivity ratio of Jurkat (α4β1)/VCAM-1 IC50 to RPMI-8866 (α4β7)/MadCAM-1 IC50
Description: VCAM was formulated into a final concentration of 0.5 µg/ml with a coating buffer, 50 µl of the solution was transferred to a 96-well plate, and the plate was coated with same at 4°C overnight. The plate was washed with coating buffer three times, then 150 µl of a blocking solution (coating buffer containing 1% BSA) was added, and the plate was blocked at 37°C for 1 h. Jurkat cells were collected, washed twice using DPBS buffer, and then resuspended to 4 × 10^6 cells/ml with an action buffer. 50 µl of the cell suspension was transferred to a 96-well plate so that the cell density reached 2 × 10^5 cells/well. Then 1 µl of the test compound at different concentration or DMSO was added and the plate was incubated at 37°C for 1 h. The plate was washed with coating buffer to remove non-adherent cells. 50 µl of a substrate (4-nitrophenyl-N-acetyl-β-D-glucosaminide) was added and the plate was incubated at 37°C for 2 h. Finally, 90 µl of a termination solution (50 mM glycine and 5 mM EDTA, pH 10.4) was added. The OD value of the plate was read at 405 nm. • Coating buffer: DMEM+ 20 mM HEPES+ 0.4 mM MnCl2 • Action buffer: DMEM+ 20 mM HEPES+ 0.1% BSA+0.4 mM MnCl2 • DMEM: dulbecco's modified eagle medium; • HEPES: 2-[4-(2-hydroxyethyl)piperazin-1-yl]ethanesulfonic acid Table 1 Results of effects of compounds on α4β7- and α4β1-mediated cell adhesion

integrin α4β7 = target: T1, integrin α4β7 (Homo sapiens, UniProt P13612+P26010); experiment: Integrin α4β7 cell adhesion assay (RPMI8866 cells on MAdCAM-1); format: cell-based; details: RPMI8866 cells, MAdCAM-1 coated plate; reported as class symbol; read-out: RPMI-8866 (α4β7)/MadCAM-1 IC50
T1 sequence (P13612 34-1032): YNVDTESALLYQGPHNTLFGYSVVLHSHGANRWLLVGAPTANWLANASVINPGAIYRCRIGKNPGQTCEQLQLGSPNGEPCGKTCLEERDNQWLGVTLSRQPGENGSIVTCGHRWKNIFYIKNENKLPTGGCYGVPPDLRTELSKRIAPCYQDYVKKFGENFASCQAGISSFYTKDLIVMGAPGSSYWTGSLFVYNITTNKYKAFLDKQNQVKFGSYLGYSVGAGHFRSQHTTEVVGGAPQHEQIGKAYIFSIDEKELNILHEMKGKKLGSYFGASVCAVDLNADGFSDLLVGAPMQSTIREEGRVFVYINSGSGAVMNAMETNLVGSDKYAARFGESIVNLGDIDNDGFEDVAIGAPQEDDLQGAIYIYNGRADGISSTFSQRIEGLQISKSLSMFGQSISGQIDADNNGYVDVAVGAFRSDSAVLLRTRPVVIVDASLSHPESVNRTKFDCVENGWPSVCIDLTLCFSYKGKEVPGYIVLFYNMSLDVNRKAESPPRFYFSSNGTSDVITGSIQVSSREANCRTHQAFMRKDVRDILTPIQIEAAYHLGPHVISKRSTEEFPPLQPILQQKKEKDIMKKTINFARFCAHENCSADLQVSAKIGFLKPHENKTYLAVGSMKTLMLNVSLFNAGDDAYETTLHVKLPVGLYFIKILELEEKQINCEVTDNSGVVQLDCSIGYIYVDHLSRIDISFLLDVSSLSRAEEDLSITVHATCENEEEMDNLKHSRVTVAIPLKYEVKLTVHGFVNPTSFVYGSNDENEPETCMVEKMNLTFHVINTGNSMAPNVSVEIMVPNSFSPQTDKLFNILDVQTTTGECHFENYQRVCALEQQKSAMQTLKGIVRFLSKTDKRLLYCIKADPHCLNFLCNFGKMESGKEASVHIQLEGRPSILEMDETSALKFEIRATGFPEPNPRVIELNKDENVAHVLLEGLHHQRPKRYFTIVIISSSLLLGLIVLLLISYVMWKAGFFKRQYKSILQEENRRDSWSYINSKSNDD
T1 sequence (P26010 20-798): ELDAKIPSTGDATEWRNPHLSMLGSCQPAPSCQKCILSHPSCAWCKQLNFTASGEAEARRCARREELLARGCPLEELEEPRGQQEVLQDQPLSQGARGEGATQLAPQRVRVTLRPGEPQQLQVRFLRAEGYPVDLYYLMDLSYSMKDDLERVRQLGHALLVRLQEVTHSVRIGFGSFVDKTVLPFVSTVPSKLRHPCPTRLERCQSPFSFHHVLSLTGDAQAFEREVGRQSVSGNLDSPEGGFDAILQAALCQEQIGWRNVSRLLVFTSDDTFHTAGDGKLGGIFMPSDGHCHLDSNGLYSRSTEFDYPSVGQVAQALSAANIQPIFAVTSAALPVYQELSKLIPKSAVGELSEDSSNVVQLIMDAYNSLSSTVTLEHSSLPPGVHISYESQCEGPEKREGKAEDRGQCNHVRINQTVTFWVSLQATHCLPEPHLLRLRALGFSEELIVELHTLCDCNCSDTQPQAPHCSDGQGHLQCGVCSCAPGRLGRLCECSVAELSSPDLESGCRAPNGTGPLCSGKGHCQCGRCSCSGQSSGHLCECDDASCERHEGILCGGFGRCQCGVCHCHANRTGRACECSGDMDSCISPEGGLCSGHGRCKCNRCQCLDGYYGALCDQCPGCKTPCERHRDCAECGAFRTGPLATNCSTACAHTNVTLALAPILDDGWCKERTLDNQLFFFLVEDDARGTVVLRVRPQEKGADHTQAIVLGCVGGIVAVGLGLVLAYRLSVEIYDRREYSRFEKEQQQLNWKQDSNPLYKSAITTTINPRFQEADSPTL
Description: MAdCAM-1 was formulated with TBS buffer to a final concentration of 2 µg/ml, 50 µl of the solution was transferred to a 96-well plate, and the plate was coated with same at 4°C overnight. The plate was washed with TBS buffer three times, then 150 µl of a blocking solution (TBS buffer containing 1% BSA) was added, and the plate was blocked at 37°C for 1 h. […] 50 µl of the cell suspension was transferred to a 96-well plate so that the cell density reached 2×10^5 cells/well. Then 1 µl of the compound at different concentrations or DMSO was added and the plate was incubated at 37°C for 1 h or 2 h. The plate was washed with TBS buffer to remove non-adherent cells. 50 µl of a substrate (4-nitrophenyl-N-acetyl-β-D-glucosaminide) was added and the plate was incubated at 37°C for 2 h. […] The IC50 value was calculated using GraphPad Prism 6 software.

With Cc1cc(-c2c(C)cc(F)cc2C)cc([C@H](CC(=O)O)NC(=O)[C@H](CC(C)C)n2cc(CCN(C)C)c(C(F)(F)F)cc2=O)c1F [Control compound A] the CL ([1]; IV: 1 mg/kg) was 56.0 mL/min/kg, the AUC ([1]; PO: 10 mg/kg) was 830 ng·h/mL and the “Test compound after 1h incubation Remaining% (T=60min)” value [2] was 31.9%. The “Test compound after 1h incubation Remaining% (T=60min)” value [3] was 42.6%, the “Test compound after 1h incubation Remaining% (T=60min)” value [4] was 1.8% and the α4β1/α4β7 (integrin α4β1) was 50.4.

Cc1cc(F)cc(C)c1-c1c(F)c(C(CC(=O)O)NC(=O)[C@H](CC(C)C)n2cc(CCC3CCCN3C)c(C(F)(F)F)cc2=O)c(F)c2c1CCC2 (single isomer, unassigned) [Trifluoroacetate salt of compound 28-2] gave a α4β1/α4β7 (integrin α4β1) of 130 and an IC50 (integrin α4β7) of less than 10 nM.

Work on Cc1cccc(C)c1-c1c(F)c(C(CC(=O)O)NC(=O)C(CC(C)C)n2cc(CCN(C)C)c(C(F)(F)F)cc2=O)c(F)c2c1CCC2 (single isomer, unassigned) [Trifluoroacetate salt of compound 20-2] yielded an IC50 (integrin α4β1; Jurkat cells, VCAM coated plate, read-out: Jurkat (α4β1)/VCAM-1 IC50) greater than 500 nM, a α4β1/α4β7 (integrin α4β1) of 648 and an IC50 (integrin α4β7) of less than 10 nM.
